Source: article PMC7817688, “Identification of 3-chymotrypsin like protease (3CLPro) inhibitors as potential anti-SARS-CoV-2 agents” (Communications Biology, 2021)
Values joined by “and” are separate entries in the source; they are usually repeats but may differ in a detail not shown here. Equal values may be shown once. Read-outs that look alike come from different tables or passages of the source. Numbered stars: 1 amine (or outer) side, 2 acyl side, 3 side chain; on linkers, the order of the positions; unused ones are H or OH. Bridge positions count the residues as written; N and C are the ends. Square brackets hold non-standard residues; d marks the D form. Peptide text beside a SMILES is read from it. * marks the point of attachment. hTyr(3S-OH,4S-OH,3'-OSO3H) = N[C@H](C(=O)O)[C@H](O)[C@@H](O)c1ccc(O)c(OS(=O)(=O)O)c1; Orn(4R-OH,5R-OH) = O=C([C@H](C[C@@H](O)[C@@H](O)N[*:3])N[*:1])[*:2]; Pro(3S-OH,4S-Me) = C[C@H]1CN[C@H](C(=O)O)[C@H]1O; X1 = CCCCCOc1ccc(-c2cc(-c3ccc(C(=O)*)cc3)no2)cc1; Gln(3R-OH) = NC(=O)C[C@@H](O)[C@H](N)C(=O)O; Hyp = O=C(O)[C@@H]1C[C@@H](O)CN1

Biological target: SARS-CoV-2 3CLpro enzyme (Severe acute respiratory syndrome coronavirus 2, UniProt P0DTD1)
Assay: biochemical
Conditions: for percent enzymatic activity, individual values / percent enzymatic activity, AVG: DMSO treated control = 100%, data of Figs. 2-4; for percent enzymatic activity, AVG: mean of 3 values; for inhibitory effect towards 3CLpro enzymatic activity (in words): in vitro enzymatic assay at the tested doses; for IC50: drugs 0 to 100 µM, 50 µM substrate, non-linear four variable fit; for inhibition at 50 µM / inhibition at 100 µM: read-out: inhibition of 3CLpro enzymatic activity
[1] = dose-dependent study, 0.097656 uM, individual values
[2] = dose-dependent study, 0.195313 uM, individual values
[3] = dose-dependent study, 0.390625 uM, individual values
[4] = dose-dependent study, 0.78125 uM, individual values
[5] = dose-dependent study, 1.5625 uM, individual values
[6] = dose-dependent study, 3.125 uM, individual values
[7] = dose-dependent study, 6.25 uM, individual values
[8] = dose-dependent study, 12.5 uM, individual values
[9] = dose-dependent study, 25 uM, individual values
[10] = dose-dependent study, 50 uM, individual values
[11] = dose-dependent study, 100 uM, individual values

Cc1cc(C#N)cc(C)c1Oc1nc(Nc2ccc(C#N)cc2)nc(N)c1Br [Etravirine]
percent enzymatic activity, individual values (50 µM drug): 85.8927% and 97.6243% and 93.0155% | percent enzymatic activity, AVG (50 µM drug): 92.1775%

CO[C@@H]1[C@H](OC(=O)/C=C/C=C/C=C/C=C/C(=O)O)CC[C@]2(CO2)[C@H]1[C@@]1(C)O[C@@H]1CC=C(C)C [Fumagillin]
percent enzymatic activity, individual values (50 µM drug): 70.8091% and 76.2559% and 71.647% | percent enzymatic activity, AVG (50 µM drug): 72.904%

CCOC(=O)c1ccc(OC(=O)CCCCCNC(=N)N)cc1 [Gabexate]
percent enzymatic activity, individual values (50 µM drug): 88.0184% and 104.147% and 90.7834% | percent enzymatic activity, AVG (50 µM drug): 94.3164%

CC(C)(C)[C@@H]1NC(=O)O[C@@H]2CCC[C@H]2OC/C=C/C(F)(F)c2nc3ccccc3nc2O[C@@H]2C[C@@H](C(=O)N[C@]3(C(=O)NS(=O)(=O)C4(C)CC4)C[C@H]3C(F)F)N(C2)C1=O [Glecaprevir]
percent enzymatic activity, individual values (50 µM drug): 92.7616% and 89.3077% and 94.7353% | percent enzymatic activity, AVG (50 µM drug): 92.2682%

CCN(CCO)CCCC(C)Nc1ccnc2cc(Cl)ccc12 (stereo not drawn) [Hydroxychloroquine]
percent enzymatic activity, individual values (50 µM drug, listed as Hydrochloroquine): 83.3868% and 88.8143% and 90.788% | percent enzymatic activity, AVG (50 µM drug): 87.663%

CCC(C)n1ncn(-c2ccc(N3CCN(c4ccc(OCC5COC(Cn6cncn6)(c6ccc(Cl)cc6Cl)O5)cc4)CC3)cc2)c1=O (stereo not drawn) [Itraconazole]
percent enzymatic activity, individual values (50 µM drug): 81.4131% and 90.2946% and 93.255% | percent enzymatic activity, AVG (50 µM drug): 88.3209%

Cc1cccc(C)c1OCC(=O)N[C@@H](Cc1ccccc1)[C@@H](O)C[C@H](Cc1ccccc1)NC(=O)[C@H](C(C)C)N1CCCNC1=O [Lopinavir]
percent enzymatic activity, individual values (50 µM drug): 75.576% and 76.4977% and 84.3318% | percent enzymatic activity, AVG (50 µM drug): 78.8018% | inhibitory effect towards 3CLpro enzymatic activity (in words): did not exhibit any 3CLpro inhibitory activity

CCCCCOc1ccc(-c2cc(-c3ccc(C(=O)N[C@H]4C[C@@H](O)[C@@H](O)NC(=O)[C@@H]5[C@@H](O)[C@@H](C)CN5C(=O)[C@H]([C@H](O)CC(N)=O)NC(=O)[C@H]([C@H](O)[C@@H](O)c5ccc(O)c(OS(=O)(=O)O)c5)NC(=O)[C@@H]5C[C@@H](O)CN5C(=O)[C@H]([C@@H](C)O)NC4=O)cc3)no2)cc1 [Micafungin] (X1-[Orn(4R-OH,5R-OH)]T[Hyp][hTyr(3S-OH,4S-OH,3'-OSO3H)][Gln(3R-OH)][Pro(3S-OH,4S-Me)]; lactam 1-C)
percent enzymatic activity, individual values (50 µM drug): 37.5856% and 41.7364% and 49.3462% | percent enzymatic activity, AVG (50 µM drug): 42.8894% | % activity [1]: 93.428% and 107.627% | activity at 0.097656 µM (dose-dependent study, 0.097656 uM, individual values, read-out: % activity): 103% | % activity [2]: 93.921% and 112.575% | activity at 0.195313 µM (dose-dependent study, 0.195313 uM, individual values, read-out: % activity): 95.4% | % activity [3]: 94.414% and 111.957% | activity at 0.390625 µM (dose-dependent study, 0.390625 uM, individual values, read-out: % activity): 94.9% | % activity [4]: 110.101% | activity at 0.78125 µM (dose-dependent study, 0.78125 uM, individual values, read-out: % activity): 101% | % activity [5]: 99.8373% and 115.049% | activity at 1.5625 µM (dose-dependent study, 1.5625 uM, individual values, read-out: % activity): 101% | % activity [6]: 103.781% and 119.998% | activity at 3.125 µM (dose-dependent study, 3.125 uM, individual values, read-out: % activity): 105% | % activity [7]: 110.101% | activity at 6.25 µM (dose-dependent study, 6.25 uM, individual values, read-out: % activity): 105% | % activity [8]: 103.915% | activity at 12.5 µM (dose-dependent study, 12.5 uM, individual values, read-out: % activity): 92.9% | % activity [9]: 86.0326% and 95.2558% | activity at 25 µM [9]: 79.6% | % activity [10]: 43.6326% and 50.0419% and 67.4213% | % activity [11]: 20.9535% and 30.3087% | activity at 100 µM (dose-dependent study, 100 uM, individual values, read-out: % activity): 19% | IC50 (read-out: IC50 for SARS-CoV-2 3CL protease): 47.6 µM | inhibitory effect towards 3CLpro enzymatic activity (in words): partial inhibitory effect | inhibition at 50 µM (50 µM drug): 57% | inhibition at 100 µM (100 µM drug): ~80%

Cc1c(O)cccc1C(=O)N[C@@H](CSc1ccccc1)[C@H](O)CN1C[C@H]2CCCC[C@H]2C[C@H]1C(=O)NC(C)(C)C [Nelfinavir]
percent enzymatic activity, individual values (50 µM drug, listed as Nilfinavir): 69.1244% and 72.3502% and 70.0461% | percent enzymatic activity, AVG (50 µM drug): 70.5069%

COC(=O)N[C@H](C(=O)N1CCC[C@H]1C(=O)Nc1ccc([C@@H]2CC[C@@H](c3ccc(NC(=O)[C@@H]4CCCN4C(=O)[C@@H](NC(=O)OC)C(C)C)cc3)N2c2ccc(C(C)(C)C)cc2)cc1)C(C)C [Ombitasvir]
percent enzymatic activity, individual values (50 µM drug): 28.8321% and 35.4015% and 42.7007% | percent enzymatic activity, AVG (50 µM drug): 35.6448% | IC50 (IC50 for SARS-CoV-2 3CL protease): 75.5 µM | % activity [1]: 102.678% and 100.823% | activity at 0.097656 µM [1]: 106% | % activity [2]: 97.7299% and 97.8652% | activity at 0.195313 µM [2]: 106% | % activity [3]: 102.06% and 103.288% | activity at 0.390625 µM [3]: 112% | % activity [4]: 107.008% and 95.4001% | activity at 0.78125 µM [4]: 113% | % activity [5]: 102.06% and 100.823% | activity at 1.5625 µM [5]: 111% | % activity [6]: 111.957% and 103.781% | activity at 3.125 µM [6]: 113% | % activity [7]: 105.153% and 107.726% | activity at 6.25 µM [7]: 115% | % activity [8]: 107.627% and 104.767% | activity at 12.5 µM [8]: 112% | % activity [9]: 102.302% and 73.6067% and 103.288% | % activity [10]: 98.3582% and 67.4213% and 91.9489% | % activity [11]: 61.2358% and 60.8884% | activity at 100 µM [11]: 64.3% | inhibitory effect towards 3CLpro enzymatic activity (in words): partial inhibitory effect | inhibition at 50 µM: 65% | inhibition at 100 µM: 50%

CCOC(=O)C1=C[C@@H](OC(CC)CC)[C@H](NC(C)=O)[C@@H](N)C1 [Oseltamvir Phosphate]
percent enzymatic activity, individual values (50 µM drug): 105.843% and 84.7982% and 96.5585% | percent enzymatic activity, AVG (50 µM drug): 95.7333%
